Results on 3 compounds are retold here after patent publication US20250368668A1, “CRYSTALLINE FORMS AND SALT FORMS OF A CARDIAC P2X RECEPTOR AGONIST, PHARMACEUTICAL COMPOSITIONS, AND THEIR USE IN TREATING MEDICAL DISORDERS” (Cornovus Pharmaceuticals, Inc., priority 2024, published 2025).

What all share (format): physicochemical
Series [1] is described as follows: Solubility in water of sodium salts of Compound I. The settings on record: read-out: Aqueous Solubility of Sodium Salt Form of Compound I. The method, then:
Sodium salts of Compound I described herein above were tested for solubility in water.

Series [2] is described as follows: Hygroscopicity by dynamic vapor sorption. The method, then:
Form A crystalline hydrate of compound I was analyzed by X-ray powder diffraction, thermogravimetric analysis, dynamic vapor sorption (to analyze hygroscopicity), and Karl Fischer titration.
The title compound was analyzed for hygroscopicity by dynamic vapor sorption.

Series [3] is described as follows: Solid-state stability of crystalline form on storage (form checked by X-ray powder diffraction). The note with it: for crystalline form after extended storage: X-ray powder diffraction. The method, then:
A sample of Form A crystalline hydrate of Compound I was subjected to stability analysis for 1 week at a temperature of 25° C. at 60% relative humidity.
Stability of Form B crystalline hydrate of compound I to extended storage was evaluated by storing samples of Form B crystalline hydrate of compound I for twelve months at either 5° C. or 25° C., and then subjecting samples of the stored material to X-ray powder diffraction analytical analysis.

By solubility is commonly meant the dissolved amount per volume that the medium holds.

Turning to `Nc1nc(Cl)nc2c1ncn2[C@H]1[C@H](O)[C@H](O)[C@]2(COP(=O)(O)O)C[C@H]12` [Compound I, ((1R,2R,3S,4R,5S)-4-(6-amino-2-chloro-9H-purin-9-yl)-2,3-dihydroxybicyclo[3.1.0]hexan-1-yl)methyl dihydrogen phosphate], in series [1], the solubility worked out at 3000 µg/mL.

On to `Nc1nc(Cl)nc2c1ncn2[C@H]1[C@H](O)[C@H](O)[C@]2(COP(=O)(O)O)C[C@H]12` [Form A crystalline hydrate of Compound I], for which, in series [2] (absorption step, FIG. 3, in %), the “increase in weight during the absorption step” value worked out at 5.2100. Also, the “weight loss during the desorption step” value in series [2] (desorption step, FIG. 3) was determined as 5.16%. The “crystalline form at the end of the stability study” value in series [3] (1 week, 25° C., 60% relative humidity) was “converted to Form B crystalline hydrate of Compound I”.

Take `Nc1nc(Cl)nc2c1ncn2[C@H]1[C@H](O)[C@H](O)[C@]2(COP(=O)(O)O)C[C@H]12` [Form B crystalline hydrate of compound I]: the “relative stability of crystalline forms” value in series [3] (comparison with Form A hydrate and crystalline sodium salt forms) is “more stable than Form A of crystalline hydrate of compound I and more stable than the crystalline sodium salt forms of compound I”. The “crystalline form after extended storage” value in series [3] (twelve months at 5° C.) and in series [3] (twelve months at 25° C.) was “remain as Form B crystalline hydrate of compound I” throughout.
